In patent US20080009418A1, “Selective Inhibitors” (Alchemia LTD., priority 2004, published 2008):

Tests used:
Human melanocortin (MC5) = target: T1, Human melanocortin (MC5) (Homo sapiens, UniProt P33032); experiment: Radioligand binding, human melanocortin MC5 membranes, FlashPlate, [125I]-NDP-αMSH; settings: compound at 10 μM; for A5 radioligand binding inhibition: human melanocortin MC5 membranes; for A5: inhibition of radioligand binding: human MC5 membranes
T1 construct: purchased Perkin Elmer Biosignal
In short: (§1)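 Cloned human receptor membranes were coated onto FlashPlate wells and incubated with radioligand and compound (added from a 0.5 mM DMSO daughter plate) for 1 hour at room temperature in the dark. Scintillation counting gave percent inhibition, with DMSO defining total and reference ligand defining non-specific binding.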

[1] = target: T2, Human melanin-concentrating hormone (MCH1) (Homo sapiens, UniProt Q99705); experiment: Radioligand binding, human melanin-concentrating hormone MCH1 membranes, FlashPlate, [125I]-S36057; settings: compound at 10 μM; for A6 radioligand binding inhibition: human MCH1 membranes; for A6: inhibition of radioligand binding: [125I]-S36057, human MCH1 membranes
T2 construct: purchased Perkin Elmer Biosignal
In short: as §1

Human δ-opioid (DOP) = target: T3, Human δ-opioid (DOP) (Homo sapiens, UniProt P41143); experiment: Radioligand binding, human δ-opioid (DOP) membranes, FlashPlate, [3H]-Bremazocine; settings: compound at 10 μM; for A1 radioligand binding inhibition: human δ-opioid (DOP) membranes; for A1: inhibition of radioligand binding: human DOP membranes
T3 construct: purchased Perkin Elmer Biosignal
In short: as §1

Human κ-Opioid (KOP) = target: T4, Human κ-Opioid (KOP) (Homo sapiens, UniProt P41145); experiment: Radioligand binding, human κ-opioid (KOP) membranes, filtration, [3H]-Diprenorphine; settings: compound at 10 μM; for A2 radioligand binding inhibition: human κ-opioid (KOP) membranes; for A2: inhibition of radioligand binding: human KOP membranes
T4 construct: purchased Perkin Elmer Biosignal
In short: (§2)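 Filtration binding on cloned human receptor membranes (1 Unit/well), [125I]-Substance P for NK1 and [3H]-Diprenorphine for KOP, 1 h at room temperature. Filters PEI-presoaked, washed with cold 50 mM Tris-HCl pH 7.4, counted by scintillation; percent inhibition calculated, reference ligand defining non-specific binding.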

Human Melanocortin (MC4) = target: T5, Human Melanocortin (MC4) (Homo sapiens, UniProt P32245); experiment: Radioligand binding, human melanocortin MC4 membranes, FlashPlate, [125I]-NDP-αMSH; settings: compound at 10 μM; for A4 radioligand binding inhibition: human melanocortin MC4 membranes; for A4: inhibition of radioligand binding: human MC4 membranes
T5 construct: purchased Perkin Elmer Biosignal
In short: as §1

Human μ-opioid (MOP) = target: T6, Human μ-opioid (MOP) (Homo sapiens, UniProt P35372); experiment: Radioligand binding, human μ-opioid (MOP) membranes, FlashPlate, [3H]-Naloxone; settings: compound at 10 μM; for A7 radioligand binding inhibition: human μ-opioid (MOP) membranes; for A7: inhibition of radioligand binding: human MOP membranes
T6 construct: purchased Perkin Elmer Biosignal
In short: as §1

Human Melanocortin (MC3) = target: T7, Human Melanocortin (MC3) (Homo sapiens, UniProt P41968); experiment: Radioligand binding, human melanocortin MC3 membranes, FlashPlate, [125I]-NDP-αMSH; settings: compound at 10 μM; for A3 radioligand binding inhibition: human melanocortin MC3 membranes; for A3: inhibition of radioligand binding: human MC3 membranes
T7 construct: purchased Perkin Elmer Biosignal
In short: as §1

[2] = target: T8, Human neuropeptide Y (NPY-Y1) (Homo sapiens, UniProt P25929); experiment: Radioligand binding, human neuropeptide Y NPY-Y1 membranes, FlashPlate, [125I]-PYY; settings: compound at 10 μM; for A9 radioligand binding inhibition / A9: inhibition of radioligand binding: human NPY-Y1 membranes
T8 construct: purchased Perkin Elmer Biosignal
T8 sequence (P25929 1-384): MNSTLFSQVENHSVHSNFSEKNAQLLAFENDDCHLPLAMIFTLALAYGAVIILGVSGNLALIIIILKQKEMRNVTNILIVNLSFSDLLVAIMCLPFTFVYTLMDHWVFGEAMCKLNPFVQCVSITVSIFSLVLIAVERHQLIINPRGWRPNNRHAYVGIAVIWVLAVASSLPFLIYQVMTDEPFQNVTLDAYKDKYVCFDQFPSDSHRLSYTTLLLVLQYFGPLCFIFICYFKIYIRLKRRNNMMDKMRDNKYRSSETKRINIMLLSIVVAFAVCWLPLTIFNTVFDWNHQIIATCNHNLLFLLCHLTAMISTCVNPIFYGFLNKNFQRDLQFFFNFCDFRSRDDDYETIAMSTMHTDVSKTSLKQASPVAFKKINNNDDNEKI
In short: as §1

Mouse urotensin (mUR2) = target: T9, Mouse urotensin (mUR2) (Mus musculus, UniProt Q8VIH9); experiment: Radioligand binding, mouse urotensin mUR2 membranes, FlashPlate, [125I]-Urotensin II; settings: compound at 10 μM; for A11 radioligand binding inhibition: mouse urotensin mUR2 membranes; for A11: inhibition of radioligand binding: mouse mUR2 membranes
T9 construct: purchased Perkin Elmer Biosignal
T9 sequence (Q8VIH9 1-385): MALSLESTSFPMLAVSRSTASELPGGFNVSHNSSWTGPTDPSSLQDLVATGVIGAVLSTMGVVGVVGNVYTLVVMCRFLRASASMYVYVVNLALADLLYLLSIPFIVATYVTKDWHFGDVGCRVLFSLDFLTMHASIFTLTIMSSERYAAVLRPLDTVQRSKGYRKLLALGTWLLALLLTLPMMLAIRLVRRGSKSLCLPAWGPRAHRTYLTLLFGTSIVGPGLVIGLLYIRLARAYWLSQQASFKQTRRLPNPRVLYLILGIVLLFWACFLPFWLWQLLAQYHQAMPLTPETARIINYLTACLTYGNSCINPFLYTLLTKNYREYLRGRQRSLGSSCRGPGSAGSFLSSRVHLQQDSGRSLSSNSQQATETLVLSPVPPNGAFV
In short: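 Cloned mouse urotensin (mUR2) receptor membranes from Perkin Elmer Biosignal were immobilized in FlashPlate microplates using a proprietary coating. Each well got 19.5 μl buffer, then 0.5 μl of DMSO, reference ligand, or compound. Adding 5 μl of [125I]-Urotensin II, diluted to 5× final concentration in binding buffer, started binding. Plates were sealed with TopSeal-A and incubated 1 hour at room temperature in the dark. Wells were counted for 30 seconds each on a TopCount after a 60-second delay, and percentage inhibition was calculated.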

Human opioid (ORL1) = target: T10, Human opioid (ORL1) (Homo sapiens, UniProt P41146); experiment: Radioligand binding, human opioid ORL1 membranes, FlashPlate, [125I]-Nociceptin; settings: compound at 10 μM; for A10 radioligand binding inhibition / A10: inhibition of radioligand binding: human ORL1 membranes
T10 construct: purchased Perkin Elmer Biosignal
In short: as §1

Human neurokinin (NK1) = target: T11, Human neurokinin (NK1) (Homo sapiens, UniProt P25103); experiment: Radioligand binding, human neurokinin NK1 membranes, filtration, [125I]-Substance P; settings: compound at 10 μM; for A8 radioligand binding inhibition: human neurokinin NK1 membranes; for A8: inhibition of radioligand binding: human NK1 membranes
T11 construct: purchased Perkin Elmer Biosignal
In short: as §2

T11 sequence (P25103 whole entry): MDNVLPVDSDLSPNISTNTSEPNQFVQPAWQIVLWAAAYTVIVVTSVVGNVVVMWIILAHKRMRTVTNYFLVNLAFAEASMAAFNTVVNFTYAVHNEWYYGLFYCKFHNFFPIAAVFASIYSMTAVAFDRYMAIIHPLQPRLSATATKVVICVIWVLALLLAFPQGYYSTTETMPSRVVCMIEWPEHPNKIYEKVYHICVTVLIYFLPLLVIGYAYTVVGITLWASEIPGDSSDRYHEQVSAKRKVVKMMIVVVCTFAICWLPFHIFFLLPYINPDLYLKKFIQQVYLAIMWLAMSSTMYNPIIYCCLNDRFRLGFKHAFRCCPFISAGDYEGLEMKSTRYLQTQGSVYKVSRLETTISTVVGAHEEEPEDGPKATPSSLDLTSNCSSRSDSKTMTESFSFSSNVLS
T10 sequence (P41146 whole entry): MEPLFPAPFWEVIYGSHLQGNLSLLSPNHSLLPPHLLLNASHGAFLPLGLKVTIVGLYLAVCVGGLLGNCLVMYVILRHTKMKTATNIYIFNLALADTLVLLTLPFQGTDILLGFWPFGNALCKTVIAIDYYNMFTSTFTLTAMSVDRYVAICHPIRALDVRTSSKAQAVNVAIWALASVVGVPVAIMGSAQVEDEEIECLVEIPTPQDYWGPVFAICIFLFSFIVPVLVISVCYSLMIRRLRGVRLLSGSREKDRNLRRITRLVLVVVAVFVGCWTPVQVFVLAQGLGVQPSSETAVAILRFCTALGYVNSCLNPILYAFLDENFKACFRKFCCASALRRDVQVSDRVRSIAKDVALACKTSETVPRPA
T2 sequence (Q99705 whole entry): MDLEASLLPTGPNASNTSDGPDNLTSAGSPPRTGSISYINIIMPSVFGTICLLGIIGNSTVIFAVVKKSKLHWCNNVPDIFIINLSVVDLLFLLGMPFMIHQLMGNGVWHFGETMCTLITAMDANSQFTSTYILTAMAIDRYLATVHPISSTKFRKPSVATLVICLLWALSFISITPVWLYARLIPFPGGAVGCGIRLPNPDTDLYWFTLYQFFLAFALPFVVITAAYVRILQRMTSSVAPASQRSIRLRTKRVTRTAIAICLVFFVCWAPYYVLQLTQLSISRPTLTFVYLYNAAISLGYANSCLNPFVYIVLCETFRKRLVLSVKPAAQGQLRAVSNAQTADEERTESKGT
T5 sequence (P32245 whole entry): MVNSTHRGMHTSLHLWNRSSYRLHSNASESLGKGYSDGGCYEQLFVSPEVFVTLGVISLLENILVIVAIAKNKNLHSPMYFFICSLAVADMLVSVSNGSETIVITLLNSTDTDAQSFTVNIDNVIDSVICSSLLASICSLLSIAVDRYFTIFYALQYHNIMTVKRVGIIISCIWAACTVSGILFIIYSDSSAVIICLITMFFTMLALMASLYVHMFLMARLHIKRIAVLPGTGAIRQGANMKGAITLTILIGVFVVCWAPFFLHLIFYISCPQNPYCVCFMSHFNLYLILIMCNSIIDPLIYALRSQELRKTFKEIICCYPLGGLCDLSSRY
T7 sequence (P41968 whole entry): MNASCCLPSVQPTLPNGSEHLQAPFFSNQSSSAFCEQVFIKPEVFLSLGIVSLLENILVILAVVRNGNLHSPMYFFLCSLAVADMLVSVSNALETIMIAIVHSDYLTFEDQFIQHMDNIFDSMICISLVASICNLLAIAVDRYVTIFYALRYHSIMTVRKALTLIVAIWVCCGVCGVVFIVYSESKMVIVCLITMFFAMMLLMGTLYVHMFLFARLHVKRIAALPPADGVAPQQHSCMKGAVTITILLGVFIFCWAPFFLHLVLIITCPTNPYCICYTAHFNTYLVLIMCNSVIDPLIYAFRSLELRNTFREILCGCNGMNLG
T4 sequence (P41145 whole entry): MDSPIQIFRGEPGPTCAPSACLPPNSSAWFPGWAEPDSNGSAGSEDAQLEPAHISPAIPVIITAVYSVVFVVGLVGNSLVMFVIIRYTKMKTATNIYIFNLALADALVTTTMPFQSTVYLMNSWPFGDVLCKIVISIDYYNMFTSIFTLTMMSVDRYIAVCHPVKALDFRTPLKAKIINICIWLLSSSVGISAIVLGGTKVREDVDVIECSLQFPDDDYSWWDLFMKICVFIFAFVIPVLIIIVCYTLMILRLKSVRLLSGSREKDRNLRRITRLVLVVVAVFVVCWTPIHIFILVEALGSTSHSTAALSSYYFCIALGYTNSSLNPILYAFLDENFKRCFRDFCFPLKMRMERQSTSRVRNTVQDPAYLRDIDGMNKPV
T6 sequence (P35372 whole entry): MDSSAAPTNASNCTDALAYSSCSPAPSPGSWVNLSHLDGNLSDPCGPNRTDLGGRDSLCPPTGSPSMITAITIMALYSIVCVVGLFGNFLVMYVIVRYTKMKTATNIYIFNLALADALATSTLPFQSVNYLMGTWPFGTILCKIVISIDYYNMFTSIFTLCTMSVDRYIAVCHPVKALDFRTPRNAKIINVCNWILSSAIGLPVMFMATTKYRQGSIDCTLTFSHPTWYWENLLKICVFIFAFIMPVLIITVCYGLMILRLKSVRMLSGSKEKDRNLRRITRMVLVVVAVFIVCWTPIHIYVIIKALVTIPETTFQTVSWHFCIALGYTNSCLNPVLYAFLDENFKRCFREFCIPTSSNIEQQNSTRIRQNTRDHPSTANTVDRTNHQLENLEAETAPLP
T3 sequence (P41143 whole entry): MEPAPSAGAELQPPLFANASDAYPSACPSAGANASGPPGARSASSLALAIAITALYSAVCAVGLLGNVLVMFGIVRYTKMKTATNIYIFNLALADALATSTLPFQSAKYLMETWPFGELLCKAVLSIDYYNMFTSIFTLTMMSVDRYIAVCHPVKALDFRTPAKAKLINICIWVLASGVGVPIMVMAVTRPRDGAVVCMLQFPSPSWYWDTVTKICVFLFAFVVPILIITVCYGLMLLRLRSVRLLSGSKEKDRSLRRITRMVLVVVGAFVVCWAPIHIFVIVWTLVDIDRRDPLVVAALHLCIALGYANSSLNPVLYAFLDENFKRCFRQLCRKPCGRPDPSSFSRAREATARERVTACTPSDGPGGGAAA
T1 sequence (P33032 whole entry): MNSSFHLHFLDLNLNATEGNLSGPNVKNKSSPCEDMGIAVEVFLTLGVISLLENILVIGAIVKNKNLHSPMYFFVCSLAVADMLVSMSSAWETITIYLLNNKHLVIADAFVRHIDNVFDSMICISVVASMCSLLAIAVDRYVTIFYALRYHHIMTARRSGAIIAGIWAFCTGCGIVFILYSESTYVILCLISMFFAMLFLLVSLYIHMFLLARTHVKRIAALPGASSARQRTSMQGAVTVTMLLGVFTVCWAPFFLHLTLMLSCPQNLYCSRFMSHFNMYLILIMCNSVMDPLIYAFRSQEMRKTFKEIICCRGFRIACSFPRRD

Row | SMILES | A5 radioligand binding inhibition (Human melanocortin (MC5)) | A6 radioligand binding inhibition [1] | A1 radioligand binding inhibition (Human δ-opioid (DOP)) | A2 radioligand binding inhibition (Human κ-Opioid (KOP)) | A4 radioligand binding inhibition (Human Melanocortin (MC4)) | A7 radioligand binding inhibition (Human μ-opioid (MOP)) | A3 radioligand binding inhibition (Human Melanocortin (MC3)) | A9 radioligand binding inhibition [2] | A11 radioligand binding inhibition (Mouse urotensin (mUR2)) | A10 radioligand binding inhibition (Human opioid (ORL1)) | A8 radioligand binding inhibition (Human neurokinin (NK1)) | A5: inhibition of radioligand binding (Human melanocortin (MC5); [125I]-NDP-αMSH) | A6: inhibition of radioligand binding [1] | A1: inhibition of radioligand binding (Human δ-opioid (DOP); [3H]-Bremazocine) | A4: inhibition of radioligand binding (Human Melanocortin (MC4); [125I]-NDP-αMSH) | A3: inhibition of radioligand binding (Human Melanocortin (MC3); [125I]-NDP-αMSH) | A9: inhibition of radioligand binding ([2]; [125I]-PYY) | A11: inhibition of radioligand binding (Mouse urotensin (mUR2); [125I]-Urotensin II) | A8: inhibition of radioligand binding (Human neurokinin (NK1); [125I]-Substance P) | other results
1 | CO[C@H]1[C@H](O)[C@@H](COCc2ccccc2)OC(OCc2ccc3ccccc3c2)[C@@H]1NC(=O)CCCNC(=N)N (stereo partly shown) [compound 77] | + (“+” indicates greater than 50% inhibition at 10 μM) | − (“−” indicates less than 50% inhibition at 10 μM) | − (“−” indicates less than 50% inhibition at 10 μM) | − (“−” indicates less than 50% inhibition at 10 μM) | − (“−” indicates less than 50% inhibition at 10 μM) | + (“+” indicates greater than 50% inhibition at 10 μM) | − (“−” indicates less than 50% inhibition at 10 μM) | − (“−” indicates less than 50% inhibition at 10 μM) | − (“−” indicates less than 50% inhibition at 10 μM) | − (“−” indicates less than 50% inhibition at 10 μM) | + (“+” indicates greater than 50% inhibition at 10 μM) |  |  |  |  |  |  |  |  | 
2 | COC[C@H]1OC(OCc2ccc(Cl)cc2)[C@H](NC(=O)CNC(=N)N)[C@@H](OCc2ccc(-c3ccccc3)cc2)[C@@H]1O (stereo partly shown) [compound 28] | + (“+” indicates greater than 50% inhibition at 10 μM) | + (“+” indicates greater than 50% inhibition at 10 μM) | − (“−” indicates less than 50% inhibition at 10 μM) | − (“−” indicates less than 50% inhibition at 10 μM) | + (“+” indicates greater than 50% inhibition at 10 μM) | − (“−” indicates less than 50% inhibition at 10 μM) | − (“−” indicates less than 50% inhibition at 10 μM) | − (“−” indicates less than 50% inhibition at 10 μM) | − (“−” indicates less than 50% inhibition at 10 μM) | − (“−” indicates less than 50% inhibition at 10 μM) | + (“+” indicates greater than 50% inhibition at 10 μM) |  |  |  |  |  |  |  |  | 
3 | NCCCC(=O)NC1C(OCc2ccc3ccccc3c2)OC(COCc2ccc3ccccc3c2)C(O)C1OCc1ccc(Cl)cc1 (stereo not shown) [compound 390] |  |  |  |  |  |  |  |  |  |  |  | + (“+” indicates greater than 50% inhibition at 10 μM) | + (“+” indicates greater than 50% inhibition at 10 μM) | − (“−” indicates less than 50% inhibition at 10 μM) | + (“+” indicates greater than 50% inhibition at 10 μM) | + (“+” indicates greater than 50% inhibition at 10 μM) | − (“−” indicates less than 50% inhibition at 10 μM) | − (“−” indicates less than 50% inhibition at 10 μM) | + (“+” indicates greater than 50% inhibition at 10 μM) | A2: inhibition of radioligand binding (Human κ-Opioid (KOP); [3H]-Diprenorphine, 10 µM): − (“−” indicates less than 50% inhibition at 10 μM); A7: inhibition of radioligand binding (Human μ-opioid (MOP); [3H]-Naloxone, 10 µM): − (“−” indicates less than 50% inhibition at 10 μM); A10: inhibition of radioligand binding (Human opioid (ORL1); [125I]-Nociceptin, 10 µM): + (“+” indicates greater than 50% inhibition at 10 μM)
4 | N=C(N)NCCC(=O)NC1C(OCc2ccc(-c3ccccc3)cc2)OC(COCc2ccc(Cl)cc2)C(O)C1OCc1ccc2ccccc2c1 (stereo not shown) [compound 413] |  |  |  |  |  |  |  |  |  |  |  | + (“+” indicates greater than 50% inhibition at 10 μM) | + (“+” indicates greater than 50% inhibition at 10 μM) | − (“−” indicates less than 50% inhibition at 10 μM) | + (“+” indicates greater than 50% inhibition at 10 μM) | + (“+” indicates greater than 50% inhibition at 10 μM) | − (“−” indicates less than 50% inhibition at 10 μM) | − (“−” indicates less than 50% inhibition at 10 μM) | + (“+” indicates greater than 50% inhibition at 10 μM) | A2: inhibition of radioligand binding (Human κ-Opioid (KOP); [3H]-Diprenorphine): − (“−” indicates less than 50% inhibition at 10 μM); A7: inhibition of radioligand binding (Human μ-opioid (MOP); [3H]-Naloxone): − (“−” indicates less than 50% inhibition at 10 μM); A10: inhibition of radioligand binding (Human opioid (ORL1); [125I]-Nociceptin): + (“+” indicates greater than 50% inhibition at 10 μM)
5 | COC[C@H]1OC(OCc2ccc(Cl)cc2)[C@H](NC(=O)CCCN)[C@@H](OCc2ccc3ccccc3c2)[C@@H]1O (single isomer, unassigned) [compound 343] |  |  |  |  |  |  |  |  |  |  |  |  |  |  |  |  |  |  |  | A5: inhibition of radioligand binding, human melanocortin (MC5) (Human melanocortin (MC5); [125I]-NDP-αMSH): − (“−” indicates less than 50% inhibition at 10 μM); A6: inhibition of radioligand binding, human melanin-concentrating hormone (MCH1) ([1]; [125I]-S36057): − (“−” indicates less than 50% inhibition at 10 μM); A1: inhibition of radioligand binding, human δ-opioid (DOP) (Human δ-opioid (DOP); [3H]-Bremazocine): − (“−” indicates less than 50% inhibition at 10 μM); A2: inhibition of radioligand binding, human κ-opioid (KOP) (Human κ-Opioid (KOP); [3H]-Diprenorphine): − (“−” indicates less than 50% inhibition at 10 μM); A4: inhibition of radioligand binding, human melanocortin (MC4) (Human Melanocortin (MC4); [125I]-NDP-αMSH): − (“−” indicates less than 50% inhibition at 10 μM); A7: inhibition of radioligand binding, human μ-opioid (MOP) (Human μ-opioid (MOP); [3H]-Naloxone): − (“−” indicates less than 50% inhibition at 10 μM); A3: inhibition of radioligand binding, human melanocortin (MC3) (Human Melanocortin (MC3); [125I]-NDP-αMSH): − (“−” indicates less than 50% inhibition at 10 μM); A9: inhibition of radioligand binding, human neuropeptide Y (NPY-Y1) ([2]; [125I]-PYY): − (“−” indicates less than 50% inhibition at 10 μM); A11: inhibition of radioligand binding, mouse urotensin (mUR2) (Mouse urotensin (mUR2); [125I]-Urotensin II): − (“−” indicates less than 50% inhibition at 10 μM); A10: inhibition of radioligand binding, human opioid (ORL1) (Human opioid (ORL1); [125I]-Nociceptin): − (“−” indicates less than 50% inhibition at 10 μM); A8: inhibition of radioligand binding, human neurokinin (NK1) (Human neurokinin (NK1); [125I]-Substance P): + (“+” indicates greater than 50% inhibition at 10 μM)
